Measured values published in US5563145A, “Rapamycin 42-oximes and hydroxylamines” (American Home Products Corporation, priority 1994, dated 1996).
Like-named read-outs stand apart in the source and are kept apart here.

Key:
[1] = tested on: cells from the thymus of normal BALB/c mice (T-cell proliferation); assay: comitogen-induced thymocyte proliferation procedure (LAF); type: cell-based; settings: for IC50: read-out: LAF IC50; for LAF ratio (compared with rapamycin): ratio >1: inhibited thymocyte proliferation to a greater extent than rapamycin; for LAF percent inhibition of T-cell proliferation: at 0.1 μM
Protocol: (§1) Immunosuppressive activity for representative compounds of this invention was evaluated in an in vitro standard pharmacological test procedure to measure the inhibition of lymphocyte proliferation (LAF) and in two in vivo standard pharmacological test procedures. The pinch skin graft test procedure measures the immunosuppressive activity of the compound tested as well as the ability of the compound tested to inhibit or treat transplant rejection. The adjuvant arthritis standard pharmacological test procedure measures the ability of the compound tested to inhibit immune mediated inflammation. The adjuvant arthritis test procedure is a standard pharmacological test procedure for rheumatoid arthritis. The procedures for these standard pharmacological test procedures are provided below.
The comitogen-induced thymocyte proliferation procedure (LAF) was used as an in vitro measure of the immunosuppressive effects of representative compounds. Briefly, cells from the thymus of normal BALB/c mice are cultured for 72 hours with PHA and IL-1 and pulsed with tritiated thymidine during the last six hours. Cells are cultured with and without various concentrations of rapamycin, cyclosporin A, or test compound. Cells are harvested and incorporated radioactivity is determined. Inhibition of lymphoproliferation is assessed as percent change in counts per minute from non-drug treated controls. For each compound evaluated, rapamycin was also evaluated for the purpose of comparison. An IC50 was obtained for each test compound as well as for rapamycin. […] The results obtained are provided as an IC50 and as the percent inhibition of T-cell proliferation at 0.1 μM. […] A positive ratio indicates immunosuppressive activity. […] Calculation of the ratio is shown below. [formula]

[2] = tested on: pinch skin graft from male BALB/c donors transplanted to male C3H(H-2K) recipients; assay: in vivo pinch skin graft survival test procedure; set-up: species or system mice: male BALB/c donors, male C3 H(H-2K) recipients; settings: 4 mg/kg, i.p.; untreated control grafts usually rejected within 6-7 days
Protocol: as §1
Representative compounds of this invention were also evaluated in an in vivo test procedure designed to determine the survival time of pinch skin graft from male BALB/c donors transplanted to male C3 H(H-2K) recipients. The method is adapted from Billingham R. E. and Medawar P. B., J. Exp. Biol. 28:385-402, (1951). Briefly, a pinch skin graft from the donor was grafted on the dorsum of the recipient as a allograft, and an isograft was used as control in the same region. The recipients were treated with either varying concentrations of test compounds intraperitoneally or orally. Rapamycin was used as a test control. Untreated recipients serve as rejection control. The graft was monitored daily and observations were recorded until the graft became dry and formed a blackened scab. This was considered as the rejection day. The mean graft survival time (number of days ±S.D.) of the drug treatment group was compared with the control group. Results are expressed as the mean survival time in days.

[3] = tested on: uninjected hind paw inflammation (immune mediated, Freund's Complete Adjuvant); assay: adjuvant arthritis standard pharmacological test procedure; type: in vivo, male inbred Wistar Lewis rats; settings: 2 mg/kg, oral, 7 doses, day 16; more negative = more potent
Protocol: as §1
The adjuvant arthritis standard pharmacological test procedure measures the ability of test compounds to prevent immune mediated inflammation and inhibit or treat rheumatoid arthritis. The following briefly describes the test procedure used. A group of rats (male inbread Wistar Lewis rats) are pre-treated with the compound to be tested (1 h prior to antigen) and then injected with Freud's Complete Adjuvant (FCA) in the right hind paw to induce arthritis. The rats are then orally dosed on a Monday, Wednesday, Friday schedule from day 0-14 for a total of 7 doses. Both hind paws are measured on days 16, 23, and 30. The difference in paw volume (mL) from day 16 to day 0 is determined and a percent change from control is obtained. The left hind paw (uninjected paw) inflammation is caused by T-cell mediated inflammation and is recorded as % change from control. The right hind paw inflammation, on the other hand, is caused by nonspecific inflammation. Compounds were tested at a dose of 2 mg/kg.

adjuvant arthritis model = settings: a model for rheumatoid arthritis; cited from earlier work
[4] = tested on: experimental allergic encephalomyelitis model; settings: a model for multiple sclerosis; cited from earlier work
[5] = tested on: formation of IgE-like antibodies; settings: in vivo; cited from earlier work
Candida albicans = settings: in vitro and in vivo; cited from earlier work
[6] = BALB/c mouse thymocytes, PHA and IL-1, 72 hours, tritiated thymidine last six hours

## 42-Deoxy-42-oxorapamycin 42-[O-(phenylmethyl)]-oxime [Example 8]
[1]; [6]
  IC50: 21.7 nM
[1]
  LAF ratio (compared with rapamycin): 0.03

## 42-Deoxy-42-oxorapamycin 42-[O-(prop-2-ynyl)]-oxime [Example 10]
[1]; [6]
  IC50: 8.13 nM
[1]
  LAF ratio (compared with rapamycin): 0.08
[2]
  Skin graft survival (mean graft survival time ± S.D.): 8.0 ± 1.1 days

## COC1CC2CCC(C)C(O)(O2)C(=O)C(=O)N2CCCCC2C(=O)OC(C(C)CC2CCC(=NOC(C)(C)C)C(OC)C2)CC(=O)C(C)C=C(C)C(O)C(OC)C(=O)C(C)CC(C)C=CC=CC=C1C (stereo not shown) [Example 7, 2-Deoxy-42-oxoxapamycin 42-[O-(tert-butyl)]-oxime]
[1]
  LAF percent inhibition of T-cell proliferation: 49%

## CO[C@H]1C[C@@H]2CC[C@@H](C)[C@@](O)(O2)C(=O)C(=O)N2CCCC[C@H]2C(=O)O[C@H]([C@H](C)C[C@@H]2CCC(=NOCc3ccccn3)[C@H](OC)C2)CC(=O)[C@H](C)/C=C(\C)[C@@H](O)[C@@H](OC)C(=O)[C@H](C)C[C@H](C)/C=C/C=C/C=C/1C [Example 5, 42-Deoxy-42-oxorapamycin 42-[O-(pyridin-2-ylmethyl)]-oxime]
[1]; [6]
  IC50: 1.5 nM
[1]
  LAF ratio (compared with rapamycin): 0.40
[3]
  Percent change in adjuvant arthritis versus control (uninjected paw): -53%
[2]
  Skin graft survival (mean graft survival time ± S.D.): 7.8 ± 0.8 days

## CO[C@H]1C[C@@H]2CC[C@@H](C)[C@@](O)(O2)C(=O)C(=O)N2CCCC[C@H]2C(=O)O[C@H]([C@H](C)C[C@@H]2CCC(=NO)[C@H](OC)C2)CC(=O)[C@H](C)/C=C(\C)[C@@H](O)[C@@H](OC)C(=O)[C@H](C)C[C@H](C)/C=C/C=C/C=C/1C [Example 2, 42-Deoxo-42-(hydroxyimino)rapamycin]
[1]; [6]
  IC50: 3.88 nM
[1]
  LAF ratio (compared with rapamycin): 0.85
[2]
  Skin graft survival (mean graft survival time ± S.D.): 10.8 ± 0.4 days

## C=CCON=C1CCC(CC(C)C2CC(=O)C(C)C=C(C)C(O)C(OC)C(=O)C(C)CC(C)C=CC=CC=C(C)C(OC)CC3CCC(C)C(O)(O3)C(=O)C(=O)N3CCCCC3C(=O)O2)CC1OC (stereo not shown) [Example 9, 42-Deoxy-42-oxorapamycin 42-(O-allyl)-oxime]
[1]
  LAF percent inhibition of T-cell proliferation: 43%

## 42-Deoxy-42-oxorapamycin 42-[O-(pyridin-4-ylmethyl)]-oxime [Example 6]
[1]; [6]
  IC50: 1.8 nM
[1]
  LAF ratio (compared with rapamycin): 0.31
[2]
  Skin graft survival (mean graft survival time ± S.D.): 8.0 ± 0.9 days

## CO[C@H]1C[C@@H]2CC[C@@H](C)[C@@](O)(O2)C(=O)C(=O)N2CCCC[C@H]2C(=O)O[C@H]([C@H](C)C[C@@H]2CC[C@@H](O)[C@H](OC)C2)CC(=O)[C@H](C)/C=C(\C)[C@@H](O)[C@@H](OC)C(=O)[C@H](C)C[C@H](C)/C=C/C=C/C=C/1C [rapamycin]
Adjuvant arthritis model
  effect in adjuvant arthritis model: effective
[1]; Mus musculus, T-cell
  IC50: 0.5 to 3.3 nM
[3]
  Percent change in adjuvant arthritis versus control (uninjected paw): -70%
[4]
  effect in experimental allergic encephalomyelitis model: effective
[2]
  Skin graft survival (mean graft survival time ± S.D.): 11.67 ± 0.63 days
[5]
  inhibition of formation of IgE-like antibodies: effectively inhibited
Candida albicans
  antifungal activity, particularly against Candida albicans: antifungal activity, particularly against Candida albicans

## CO[C@H]1C[C@@H]2CC[C@@H](C)[C@@](O)(O2)C(=O)C(=O)N2CCCC[C@H]2C(=O)O[C@H]([C@H](C)C[C@@H]2CCC(=NOC(N)=O)[C@H](OC)C2)CC(=O)[C@H](C)/C=C(\C)[C@@H](O)[C@@H](OC)C(=O)[C@H](C)C[C@H](C)/C=C/C=C/C=C/1C [Example 4, 42-Deoxy-42-oxorapamycin-42-O-carbamoyloxime]
[1]; [6]
  IC50: 2 nM
[1]
  LAF ratio (compared with rapamycin): 0.25
[2]
  Skin graft survival (mean graft survival time ± S.D.): 9.5 ± 1.1 days

## CO[C@H]1C[C@@H]2CC[C@@H](C)[C@@](O)(O2)C(=O)C(=O)N2CCCC[C@H]2C(=O)O[C@H]([C@H](C)C[C@@H]2CCC(NO)[C@H](OC)C2)CC(=O)[C@H](C)/C=C(\C)[C@@H](O)[C@@H](OC)C(=O)[C@H](C)C[C@H](C)/C=C/C=C/C=C/1C (stereo partly shown) [Example 3, 42-Deoxo-42-(hydroxyamino)rapamycin]
[1]; [6]
  IC50: 5.6 nM
[1]
  LAF ratio (compared with rapamycin): 0.18
[3]
  Percent change in adjuvant arthritis versus control (uninjected paw): -84%
[2]
  Skin graft survival (mean graft survival time ± S.D.): 9.6 ± 0.0 days
